Source: ChEMBL document CHEMBL1201862, “PubChem BioAssay data set” (2004)
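Compound exposure: 48 hours, 5 concentrations, 96-well plates. GI50: concentration for 50% inhibition of growth.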 Active and inactive are the calls of the source. Cut-off read from the data, not from the text of the source: active = GI50 up to about 1.1 µM and inactive = higher.

How the values were obtained:
Experiment in all cases: inhibition of tumour cell growth, NCI panel, 48 h
786-0 = system: 786-0
ACHN = system: ACHN
CCRF-CEM = system: CCRF-CEM
COLO 205 = system: COLO 205
DU-145 = system: DU-145
HL-60 = system: HL-60
MDA-MB-231 = system: MDA-MB-231
Malme-3M = system: Malme-3M
NCI-H522 = system: NCI-H522
OVCAR-5 = system: OVCAR-5
RPMI-8226 = system: RPMI-8226
SF-295 = system: SF-295
SNB-75 = system: SNB-75
SR = system: SR
SW-620 = system: SW-620
T47D = system: T47D
U-251 = system: U-251
BT-549 = system: BT-549
SK-OV-3 = system: SK-OV-3
M19-MEL = system: M19-MEL

Measured: GI50

O=C1OC(C(O)CO)C(O)=C1O (stereo not given)
inactive: 786-0 > 100 µM | ACHN > 100 µM | CCRF-CEM > 10 µM | COLO 205 > 100 µM | DU-145 > 100 µM | HL-60 > 100 µM | MDA-MB-231 > 100 µM | Malme-3M > 100 µM | NCI-H522 > 100 µM | OVCAR-5 > 100 µM | RPMI-8226 49.2 µM | SF-295 > 100 µM | SNB-75 99.8 µM | SR 55.3 µM | SW-620 > 100 µM | T47D > 100 µM | U-251 > 100 µM

COc1ccc2cc1Oc1ccc(cc1)CC1c3c(cc(OC)c4c3Oc3cc5c(cc3O4)CCNC5C2)CCN1C (stereo not given)
active: SR 0.698 µM
inactive: ACHN 1.88 µM | BT-549 2.77 µM | CCRF-CEM 1.24 µM | COLO 205 1.72 µM | HL-60 1.84 µM | Malme-3M 2.09 µM | NCI-H522 1.7 µM | OVCAR-5 3.6 µM | RPMI-8226 1.63 µM | SF-295 1.91 µM | SK-OV-3 4.67 µM | SW-620 1.77 µM

CCc1nc(N)nc(N)c1-c1ccc2nn(-c3ccccc3)[n+]([O-])c2c1
active: HL-60 0.902 µM | SW-620 0.869 µM
inactive: 786-0 1.16 µM | ACHN 1.76 µM | BT-549 11.9 µM | CCRF-CEM 1.6 µM | COLO 205 8.22 µM | DU-145 6.14 µM | MDA-MB-231 11.7 µM | Malme-3M 10.7 µM | NCI-H522 2.83 µM | OVCAR-5 14 µM | RPMI-8226 8.24 µM | SF-295 2.4 µM | SK-OV-3 39.1 µM | SNB-75 21.3 µM | SR 1.35 µM | T47D 13.1 µM | U-251 2.58 µM

Cn1c(-c2ccccc2)c2cc3nc4ccccc4nc3cc2c1-c1ccccc1
inactive: ACHN 17.7 µM | BT-549 21.6 µM | COLO 205 2.26 µM | DU-145 30.3 µM | HL-60 20.1 µM | MDA-MB-231 24.2 µM | Malme-3M 30.1 µM | NCI-H522 15.2 µM | OVCAR-5 52.2 µM | RPMI-8226 12.1 µM | SF-295 14.4 µM | SK-OV-3 21.6 µM | SNB-75 26.5 µM | SR 4.56 µM | SW-620 15.8 µM | T47D 24.5 µM | U-251 19.8 µM

Cc1[nH]c(=O)nc(S)c1C(=O)Nc1cccc2cc3ccccc3cc12
inactive: ACHN > 100 µM | BT-549 > 100 µM | CCRF-CEM > 100 µM | COLO 205 > 100 µM | DU-145 > 100 µM | HL-60 > 100 µM | Malme-3M > 100 µM | OVCAR-5 > 100 µM | RPMI-8226 > 100 µM | SF-295 > 100 µM | SK-OV-3 > 100 µM | SNB-75 > 100 µM | SR > 100 µM | SW-620 > 100 µM | T47D > 100 µM | U-251 > 100 µM

CCOP(=O)(OCC)/C(C#N)=C/c1cn(C)cn1
inactive: ACHN > 100 µM | BT-549 > 100 µM | CCRF-CEM > 100 µM | COLO 205 > 100 µM | MDA-MB-231 > 100 µM | Malme-3M > 100 µM | NCI-H522 > 100 µM | OVCAR-5 > 100 µM | SF-295 > 100 µM | SK-OV-3 > 100 µM | SNB-75 > 100 µM | SR > 100 µM | SW-620 > 100 µM | U-251 > 100 µM

O=C(NC(Cc1ccc(Br)cc1)C(=O)O)c1ccc(I)cc1 (stereo not given)
inactive: CCRF-CEM > 72.9 µM | COLO 205 > 100 µM | HL-60 > 100 µM | M19-MEL > 100 µM | Malme-3M 83.4 µM | NCI-H522 > 82.6 µM | OVCAR-5 > 100 µM | RPMI-8226 > 68.9 µM | SF-295 > 100 µM | SK-OV-3 > 100 µM | SNB-75 > 95.7 µM | SW-620 > 100 µM | U-251 > 95.3 µM

COc1ccc(N2C(=O)C3c4[nH]c5cccc(C)c5c4C4CCC(C(C)(C)C)CC4C3C2=O)cc1 (stereo not given)
inactive: ACHN > 10 µM | COLO 205 > 10 µM | DU-145 > 10 µM | HL-60 > 10 µM | MDA-MB-231 > 10 µM | Malme-3M > 10 µM | NCI-H522 > 10 µM | OVCAR-5 > 10 µM | RPMI-8226 > 10 µM | SF-295 > 10 µM | SK-OV-3 > 10 µM | SNB-75 5.15 µM | SR > 10 µM | SW-620 > 10 µM | T47D > 10 µM | U-251 9.91 µM
